Patent US5494914A, “Inhibitors for testosterone 5α-reductase activity” (Endorecherche, priority 1994, dated 1996)

What was measured:
[1] = system: rat prostate; conditions: in vitro and in vivo; Brooks et al. 1981; cited from earlier work
[2] = system: 5α-reductase; conditions: Liang et al. 1981; cited from earlier work
[3] = system: ventral prostate; conditions: rat; Brooks et al. 1981; cited from earlier work
[4] = target: T1, 5α-reductase (Homo sapiens, UniProt P18405); test: 5α-reductase inhibition in DU 145 cells (conversion of tritiated 4-androstenedione); format: cell-based
T1 construct: host or cells: DU 145 (human prostate carcinoma)
T1 sequence (P18405 1-259): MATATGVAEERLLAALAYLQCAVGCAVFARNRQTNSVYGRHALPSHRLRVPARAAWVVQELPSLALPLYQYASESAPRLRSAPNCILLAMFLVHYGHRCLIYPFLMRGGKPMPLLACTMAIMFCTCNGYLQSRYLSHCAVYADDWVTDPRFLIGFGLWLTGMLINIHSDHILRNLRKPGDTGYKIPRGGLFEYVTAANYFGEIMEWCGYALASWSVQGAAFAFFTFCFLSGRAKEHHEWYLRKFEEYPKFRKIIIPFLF
Protocol: Except where otherwise indicated, 5α-reductase inhibition is measured by the following method. Plates having 24 dishes per unit are used. Into each dish were placed 100,000 cells from the human carcinoma metastatic prostatic cell line DU 145 (ATCC #HTB 81) in MEM medium containing 2% dextran charcoal-treated calf serum, 1% penicillin, 1% streptomycin and 1% non essential amino acids. After 24 h, the medium was removed and replaced by 2.5 ml of MEM medium containing 2% dextran charcoal-treated calf serum, 10 nM of tritiated […] and 1% of ethanol. Each dish had different concentrations of the 5α-reductase inhibitor being tested. The cells were incubated for 24 h at 37° C. under an atmosphere of 5% CO2 saturated with water. The extracellular medium was then removed, centrifuged at 1000 RPM for 10 min., and decanted in test tubes. To these test tubes was added 100 μl of ethanol containing 25 μg of androstanedione, 25 μg of 4-androstenedione, 25 μg of dihydrotestosterone and 25 μg of testosterone. The steroids were then extracted from the mixture by two extractions with 2 ml of diethyl ether. Phase separation was achieved by freezing of the aqueous phase. The organic phase was then evaporated, thus leaving asteroid residue which was dissolved in a few drops of methylene chloride and spotted on TLC plates (Whatman WH 4420222). After developing twice with a mixture of benzene-acetone (9:1), the spots were visualized by U.V. and gaseous iodine, cut, put into separate vials for each steroid and extracted for 15 min with 1 ml of ethanol. After addition of 10 ml of scintillation cocktail (NEN 989), the vials were shaked and counted.
The 5α-reductase activity is the sum of the transformation of 4-androstenedione to androstanedione and of the transformation of testosterone to dihydrotestosterone.

[5] = system: prostate; conditions: men; Imperato-McGinley et al. 1989; cited from earlier work
[6] = system: intraprostatic DHT; conditions: men; Imperato-McGinley et al. 1989; cited from earlier work
[7] = system: type I 5α-reductase; conditions: Andersson et al. 1991; cited from earlier work
[8] = system: type II 5α-reductase; conditions: Andersson et al. 1991; cited from earlier work

Row | Ki [4] [nM] | SMILES | other results
1 | – | CCN(CC)C(=O)[C@H]1CC[C@H]2[C@@H]3CC[C@H]4N(C)C(=O)CC[C@]4(C)[C@H]3CC[C@]12C [4-MA, N,N-diethyl-4-methyl-3-oxo-4-aza-5α-androstane-17β-carboxamide] | inhibiting the formation of DHT from testosterone in rat prostate [1]: useful in inhibiting the formation of DHT from testosterone in rat prostate in vitro and in vivo; 5α-reductase inhibition type [2]: reversible inhibitor of 5α-reductase; testosterone-induced increase in ventral prostate weight [3]: reducing the testosterone-induced increase in ventral prostate weight
2 | 29 | CN(C=O)[C@H]1CC[C@H]2[C@@H]3CC[C@H]4N(C)C(=O)CC[C@]4(C)[C@H]3CC[C@]12C [EM 316, 17β-(N-methyl-N-formamido)-4-methyl-4-aza-5α-androstan-3-one] | –
3 | 11.2 | CN1C(=O)CC[C@]2(C)[C@H]3CC[C@]4(C)[C@@H](N(C=O)C5CC5)CC[C@H]4[C@@H]3CC[C@@H]12 [EM 336, 17β-(N-Cyclopropyl-N-formamido)-4-methyl-4-aza-5α-androstan-3-one] | –
4 | 11.9 | CN1C(=O)CC[C@]2(C)[C@H]3CC[C@]4(C)[C@@H](N(C=O)C5CCCCC5)CC[C@H]4[C@@H]3CC[C@@H]12 [EM 337, 17β-(N-Cyclohexyl-N-formamido)-4-methyl-4-aza-5α-androstan-3-one] | –
5 | 2.6 | CCCCN(C=O)[C@H]1CC[C@H]2[C@@H]3CC[C@H]4N(C)C(=O)CC[C@]4(C)[C@H]3CC[C@]12C [EM 347, 17β-(N-n-butyl-N-formamido)-4-methyl-4-aza-5α-androstan-3-one] | –
6 | 0.5 | CNC(=O)N(C1CC1)[C@H]1CC[C@H]2[C@@H]3CC[C@H]4N(C)C(=O)CC[C@]4(C)[C@H]3CC[C@]12C [EM 373, 17β-N-(1N-cyclopropyl-2N-methylurea)-4-methyl-4-aza-5α-androstan-3-one] | –
7 | 2.3 | CN1C(=O)CC[C@]2(C)[C@H]3CC[C@]4(C)[C@@H](N(C(=O)Nc5ccccc5)C5CC5)CC[C@H]4[C@@H]3CC[C@@H]12 [EM 374, 17β-N-(1N-cyclopropyl-2N-phenylurea)-4-methyl-4-aza-5α-androstan-3-one] | –
8 | 7.1 | CCCNC(=O)N(C1CC1)[C@H]1CC[C@H]2[C@@H]3CC[C@H]4N(C)C(=O)CC[C@]4(C)[C@H]3CC[C@]12C [EM 390] | –
9 | 13.5 | CCNC(=O)N(C1CC1)[C@H]1CC[C@H]2[C@@H]3CC[C@H]4N(C)C(=O)CC[C@]4(C)[C@H]3CC[C@]12C [EM 392, 17βN-(1N-cyclopropyl-2N-ethylurea)-4-methyl-4-aza-5α-androstan-3-one] | –
10 | 3.3 | CCCCNC(=O)N(C1CC1)[C@H]1CC[C@H]2[C@@H]3CC[C@H]4N(C)C(=O)CC[C@]4(C)[C@H]3CC[C@]12C [EM 394] | –
11 | 14 | CC(C)NC(=O)N(C1CC1)[C@H]1CC[C@H]2[C@@H]3CC[C@H]4N(C)C(=O)CC[C@]4(C)[C@H]3CC[C@]12C [EM 396] | –
12 | 3.2 | CN1C(=O)CC[C@]2(C)[C@H]3CC[C@]4(C)[C@@H](N(C(=O)NC5CCCCC5)C5CC5)CC[C@H]4[C@@H]3CC[C@@H]12 [EM 397] | –
13 | 1.8 | CCCCCN(C=O)[C@H]1CC[C@H]2[C@@H]3CC[C@H]4N(C)C(=O)CC[C@]4(C)[C@H]3CC[C@]12C [EM 401, 17β(N-n-Amyl-N-formamido)-4-methyl-4-aza-5α-androstan-3-one] | –
14 | 7.2 | CCCCCCN(C=O)[C@H]1CC[C@H]2[C@@H]3CC[C@H]4N(C)C(=O)CC[C@]4(C)[C@H]3CC[C@]12C [EM 402, 17β-(N-n-Hexyl-N-formamido)-4-methyl-4-aza-5α-androstan-3-one] | –
15 | 2.2 | CC(C)CCN(C=O)[C@H]1CC[C@H]2[C@@H]3CC[C@H]4N(C)C(=O)CC[C@]4(C)[C@H]3CC[C@]12C [EM 405, 17β-(N-iso-Amyl-N-formamido)-4-methyl-4-aza-5α-androstan-3-one] | –
16 | 10.6 | CCC(CC)N(C=O)[C@H]1CC[C@H]2[C@@H]3CC[C@H]4N(C)C(=O)CC[C@]4(C)[C@H]3CC[C@]12C [EM 407, 17β-(N-1-Ethylpropyl-N-formamido)-4-methyl-4-aza-5α-androstan-3-one] | –
17 | 8.2 | CN(C(=O)Nc1ccccc1)[C@H]1CC[C@H]2[C@@H]3CC[C@H]4N(C)C(=O)CC[C@]4(C)[C@H]3CC[C@]12C [EM 408, 17βN-(1N-methyl-2N-phenylurea)-4-methyl-4-aza-5α-androstan-3-one] | –
18 | 7.3 | CC(C)CN(C=O)[C@H]1CC[C@H]2[C@@H]3CC[C@H]4N(C)C(=O)CC[C@]4(C)[C@H]3CC[C@]12C [EM 422, 17β-(N-iso-Butyl-N-formamido)-4-methyl-4-aza-5-androstan-3-one] | –
19 | 5.1 | CCCN(C=O)[C@H]1CC[C@H]2[C@@H]3CC[C@H]4N(C)C(=O)CC[C@]4(C)[C@H]3CC[C@]12C [EM 423, 17β-(N-n-propyl-N-formamido)-4-methyl-4-aza-5α-androstan-3-one] | –
20 | 11.8 | CCCCN(C(C)=O)[C@H]1CC[C@H]2[C@@H]3CC[C@H]4N(C)C(=O)CC[C@]4(C)[C@H]3CC[C@]12C [EM 424, 17β-(N-n-butyl-N-acetamido)-4-methyl-4-aza-5α-androstan-3-one] | –
21 | 5.6 | CN1C(=O)CC[C@]2(C)[C@H]3CC[C@]4(C)[C@@H](N(C=O)Cc5ccccc5)CC[C@H]4[C@@H]3CC[C@@H]12 [EM 436, 17β-(N-Benzyl-N-formamido)-4-methyl-4-aza-5α-androstan-3-one] | –
22 | – | CC(C)(C)NC(=O)[C@H]1CC[C@H]2[C@@H]3CC[C@H]4NC(=O)C=C[C@]4(C)[C@H]3CC[C@]12C [MK-906] | reduction in prostatic size [5]: 25-30%; intraprostatic concentration of DHT [6]: reduction in the intraprostatic concentration of DHT; inhibition of the type I enzyme [7]: weak inhibitor of the type I enzyme; inhibition of the type II enzyme [8]: potent inhibitor of the type II enzyme
